Experiments:
[1] = tested on: DC2.4 cells presenting SIINFEKL to B3Z CD8+ T cell hybridoma; experiment: B3Z activation by SIINFEKL-pulsed DC2.4 (CPRG β-gal assay); format: cell-based, murine
Description: DC2.4 cells (2.5×10^4 cells/well) were seeded at 100 μL/well in 96 well tissue culture white sided/white bottom plate and incubated overnight to allow for cell adherence. 37° C. in an atmosphere containing 5% CO2 and 95% humidity. Following pre-treatment of the DC2.4 cells (1-24 h) with escalating doses of the test molecules, the cells were washed, pulsed with 0.5 nM of the MHC class I H-2Kb peptide, SIINFEKL, for 1 h, and then co-cultured with the CD8+ T cell hybridoma, B3Z.
The level of B3Z cell activation and the effects of the various test molecules on B3Z activation were quantified in cell lysates using the β-gal chromogenic substrate, CPRG. The media was removed and 100 μL of 250 μM CPRG reconstituted in the lysis buffer (1×DPBS, 0.2% v/v saponin, 20 mM magnesium chloride) was added directly to each well. Cells were maintained at 37° C. prior to measurement. The absorbance at 560 nm (700 nm for background) was intermittently monitored using a BioTek Synergy HTX multimode microplate reader (Winooski, VT) to detect β-gal activity. CPRG lysis buffer and B3Z cells only served as the negative controls. All treatments were performed in triplicate and all experiments were repeated a minimum of three times.
Activation of B3Z T cell hybridoma cells was assessed following their exposure to various MHC class I H-2K^b positive cell lines presenting the SIINFEKL peptide. B3Z are a CD8+ SIINFEKL peptide specific T-cell hybridoma expressing a beta-galactosidase (β-gal) reporter gene driven by NF-AT elements on the interleukin 2 (IL-2) promoter. […] Activation of B3Z leads to production of β-gal whose presence can be quantified using the optimized detection assay described by Jendresen et al. (Jendresen, et al., An improved CPRG colorimetric ligand-receptor signal transduction assay based on beta-galactosidase activity in mammalian BWZ-reporter cells. J Pharmacol Toxicol Methods. 2018 March-April; 90:67-75).
To stimulate β-gal production in the B3Z, the H-2Kb murine cell lines, DC2.4, B16F10, and E.G7-OVA, or freshly isolated murine splenocytes, were plated at a density of 2.5 or 5×10^4 cells/well (100 μL/well in 96 well plates) and cultured overnight at 37° C. in an atmosphere containing 5% CO2 and 95% humidity. The cells were washed with DPBS and then treated for 1-24 h with the indicated concentrations of BzFβ suspended in complete media. Vehicle controls were always included. […]
To detect activation of the B3Z cells, the media was removed and 100 μL of 250 µM CPRG reconstituted in the lysis buffer (1×DPBS, 0.2% v/v saponin, 20 mM magnesium chloride) was added directly to each well. […] The absorbance at 560 nm (700 nm for background) was intermittently monitored using a BioTek Synergy HTX multimode microplate reader (Winooski, VT) to detect β-gal activity. […]

[2] = tested on: SIINFEKL specific CD8+ T cells; experiment: Immunization with BzFβ/SIINFEKL treated DC2.4 cells; format: in vivo, C57BL/6crl mice; details: mice immunized sc with 1.2×10^6 DC2.4 treated with 50 μg/mL BzFβ then 1 μg/mL SIINFEKL; prime and boost
Description: DC2.4 cells that had been matured by an overnight treatment with 20 ng/mL murine IFNγ (He, et al., Interferon gamma stimulates cellular maturation of dendritic cell line DC2.4 leading to induction of efficient cytotoxic T cell responses and antitumor immunity. Cell Mol Immunol. 2007; 4(2):105-11) were treated with 30 μg/mL mitomycin C to block replication and were then pulsed for 1 h with 1 μg/mL SIINFEKL peptide (Group 2), or with 50 μg/mL BzFβ for 1 h and then with 1 μg/mL SIINFEKL peptide for 1 h (Group 3).
Female C57BL/6crl mice were separated into 3 groups with 6 mice per group. The mice in Group 1 served as the naïve, no treatment group, Group 2 treated with by subcutaneous injection of 1.2×10^6 DC2.4 cells primed with IFNγ, mitomycin C and SIINFEKL, and Group 3 treated by subcutaneous injection of 1.2×10^6 DC2.4 cells primed with BzFβ and SIINFEKL as outlined above. […] Fourteen days later, the number of MHC class I/SIINFEKL tetramer positive CD8+ cells in the peripheral blood and spleen were determined.
On day 21 (14 days after the last immunization) blood was collected from the retro-orbital plexus. […] The number of CD19 negative^−/CD8 positive/SIINFEKL tetramer positive cells was determined by flow cytometric analysis following collection of positive events detected in the lymphocyte gate. […]

O=C(O)/C=C/c1ccc2occc2c1 [BzFβ, (2E)-3-(1-benzofuran-5-yl)prop-2-enoic acid]
B3Z response versus peptide pulsed DC2.4 alone ([1]; co-treatment 1 h, 25 μg/mL BzFβ, 15 pM to 1 nM SIINFEKL, 19 h coculture): significantly greater
time to significantly enhanced B3Z activation ([1]; peptide pulsed DC2.4): 5 min
SIINFEKL-specific CD8+ T cell response [2]: enhanced SIINFEKL-specific CD8+ T cell response

— US20250381165A1, “Method of Use for Benzofuran Compounds” (Tampa Bay Research Institute, Inc., priority 2024, published 2025)
